According to PubChem BioAssay AID743476 (The Scripps Research Institute Molecular Screening Center, 2014):
The source made the active and inactive calls. How the calls were made is not given here.

System: CCHF-vOTU
Test: PubChem AID 743476
Settings: Recombinant CCHFV vOTU, PEP-AMC fluorescence cleavage, with PEP-AMC substrate, active compounds read high

SMILES: CC1(C)C=C2C(=NN(c3ccccc3)C(N)=C2C#N)CO1
- inhibition (Assay 1, at 1.83 µM): -4.71% (inactive)
- inhibition (Assay 2, at 1.83 µM): 23.4%

SMILES: O=C1Cc2ccccc2C(=O)N1
- inhibition (Assay 1, at 0.4 µM): 38.8%
- inhibition (Assay 2, at 0.4 µM): 54.3%

SMILES: O=C(/C=C/c1ccc(O)cc1)c1ccc(NC2=C(N3CCCCC3)C(=O)c3ccccc3C2=O)cc1
- inhibition (Assay 1, at 3.35 µM): 14.3% (inactive)
- inhibition (Assay 2, at 3.35 µM): 16.3% (inactive)
- inhibition (Assay 3, at 6.7 µM): 33.6%

SMILES: CC1CCCC(NC(=O)COC(=O)c2ccc([N+](=O)[O-])s2)C1C (centres undefined)
- inhibition (Assay 1, at 9.22 µM): 37.2%
- inhibition (Assay 2, at 9.22 µM): 8.38% (inactive)
- inhibition (Assay 3, at 18.44 µM): 13.5% (inactive)

SMILES: CCC(CNc1cc(OC)cc2cccnc12)NC1CCCCC1 (centres undefined)
- inhibition (Assay 1, at 6.32 µM): -27% (inactive)
- inhibition (Assay 2, at 6.32 µM): 13.6% (inactive)
- inhibition (Assay 3, at 12.64 µM): 52.4%

SMILES: COc1cc(C(=O)c2nccc3cc(OC)c(OC)cc23)c([N+](=O)[O-])cc1OC
- inhibition (Assay 1, at 1.05 µM): 6.05% (inactive)
- inhibition (Assay 2, at 1.05 µM): 15% (inactive)
- inhibition (Assay 3, at 2.1 µM): 17.8% (inactive)

SMILES: O=C(NC1=C(NC2CCS(=O)(=O)C2)C(=O)c2ccccc2C1=O)c1ccccc1 (centres undefined)
- inhibition (Assay 1, at 3.9 µM): 4.88% (inactive)
- inhibition (Assay 2, at 3.9 µM): 22.6%

SMILES: O=C1C=C(Nc2ccccc2)c2ccccc2C1=O
- inhibition (Assay 1, at 6.87 µM): 22.4%
- inhibition (Assay 2, at 6.87 µM): 52.9%

SMILES: O=C1Cc2ccccc2C(=O)N1CCc1ccccc1
- inhibition (Assay 1, at 1.14 µM): 12.7% (inactive)
- inhibition (Assay 2, at 1.14 µM): 57.5%

SMILES: NS(=O)(=O)c1ccc(NC2=CC(=O)C(=O)c3ccccc32)cc1
- inhibition (Assay 1, at 4.85 µM): 6.01% (inactive)
- inhibition (Assay 2, at 4.85 µM): 30.6%

SMILES: O=C(COC(=O)c1ccc([N+](=O)[O-])s1)Nc1ncc(C(F)(F)F)cc1Cl
- inhibition (Assay 1, at 8.84 µM): 23.2%
- inhibition (Assay 2, at 8.84 µM): 19.8% (inactive)
- inhibition (Assay 3, at 17.68 µM): 30.5%

SMILES: COc1cc(NC(=O)COC(=O)c2ccc([N+](=O)[O-])s2)cc(OC)c1OC
- inhibition (Assay 1, at 6.6 µM): 7.4% (inactive)
- inhibition (Assay 2, at 6.6 µM): 4.53% (inactive)
- inhibition (Assay 3, at 13.2 µM): 11.9% (inactive)

SMILES: CC1COCC(C)N1C1=C(Cl)C(=O)c2ccccc2C1=O (centres undefined)
- inhibition (Assay 1, at 5.07 µM): 0.67% (inactive)
- inhibition (Assay 2, at 5.07 µM): 14% (inactive)
- inhibition (Assay 3, at 10.14 µM): 17.6% (inactive)

SMILES: COC(CNC(=O)c1ccc2c3c(onc13)-c1ccccc1C2=O)OC
- inhibition (Assay 1, at 3.49 µM): 16.6% (inactive)
- inhibition (Assay 2, at 3.49 µM): 12.4% (inactive)
- inhibition (Assay 3, at 6.98 µM): 35.5%

SMILES: O=C(COC(=O)c1ccc([N+](=O)[O-])s1)NCc1ccc(F)cc1
- inhibition (Assay 1, at 8.08 µM): -23.4% (inactive)
- inhibition (Assay 2, at 8.08 µM): 7.84% (inactive)
- inhibition (Assay 3, at 2.56 µM): 11.4% (inactive)

SMILES: S=C(Nc1ccc(Cl)cc1)Nc1cccc2cnccc12
- inhibition (Assay 1, at 6.44 µM): -17.9% (inactive)
- inhibition (Assay 2, at 6.44 µM): 5.81% (inactive)
- inhibition (Assay 3, at 12.88 µM): 7.7% (inactive)

SMILES: O=c1[nH]c(Nc2ccccc2)cc2cc(Br)ccc12
- inhibition (Assay 2, at 1 µM): 34.1%
- inhibition (Assay 3, at 2 µM): 42.6%

SMILES: O=C(OCc1nnc(-c2ccccc2)o1)c1ccc([N+](=O)[O-])s1
- inhibition (Assay 1, at 7.52 µM): 3.79% (inactive)
- inhibition (Assay 2, at 7.52 µM): -3.16% (inactive)
- inhibition (Assay 3, at 15.04 µM): 25%

SMILES: Cc1ccc(NC2=CC(=O)C(=O)c3ccccc32)cc1
- inhibition (Assay 1, at 7.14 µM): 20%
- inhibition (Assay 2, at 7.14 µM): 51.9%

SMILES: CC(=O)c1ccc(NC(=S)Nc2cccc3cnccc23)cc1
- inhibition (Assay 1, at 6.84 µM): 0.13% (inactive)
- inhibition (Assay 2, at 6.84 µM): 3.01% (inactive)
- inhibition (Assay 3, at 13.68 µM): 6.6% (inactive)

SMILES: Cc1ccc2c(c1C)-c1c(ccc(C)c1C)C(=O)C2=O
- inhibition (Assay 1, at 7.79 µM): -37.1% (inactive)
- inhibition (Assay 2, at 7.79 µM): 18% (inactive)
- inhibition (Assay 3, at 15.58 µM): 38.4%

SMILES: Cc1c(Cl)cnc(NC(=O)COC(=O)c2ccc([N+](=O)[O-])s2)c1Cl
- inhibition (Assay 1, at 7.08 µM): 9.06% (inactive)
- inhibition (Assay 2, at 7.08 µM): 5.86% (inactive)
- inhibition (Assay 3, at 14.16 µM): 14.2% (inactive)

SMILES: O=C(COC(=O)c1ccc([N+](=O)[O-])s1)Nc1ccc(F)cc1
- inhibition (Assay 1, at 7.8 µM): 9.26% (inactive)
- inhibition (Assay 2, at 7.8 µM): 9.2% (inactive)
- inhibition (Assay 3, at 15.6 µM): 17.4% (inactive)

SMILES: COc1ccccc1NC(=O)COC(=O)c1ccc([N+](=O)[O-])s1
- inhibition (Assay 1, at 9.94 µM): -1.05% (inactive)
- inhibition (Assay 2, at 9.94 µM): 9.34% (inactive)
- inhibition (Assay 3, at 19.88 µM): 20%
